Reference: patent US11306084B2, “Integrin antagonists” (Saint Louis University, priority 2016, dated 2022)
Structures can show the parent of a compound that is named as a salt.

Columns and labels:
[1] = target: T1, Recombinant human integrin ανβ1 (Homo sapiens, UniProt P05556+P06756); assay: Solid Phase Receptor Assay (SPRA) for ανβ1 function; assay type: binding; details: plate-bound human fibronectin; read-out: αvβ1 SPRA IC50
T1 construct: purchased R&D Systems 6579-AV

[2] = target: T2, Recombinant human integrin ανβ3 (Homo sapiens, UniProt P05106+P06756); assay: Solid Phase Receptor Assay (SPRA) for ανβ3 function; assay type: binding; details: plate-bound human vitronectin; read-out: αvβ3 SPRA IC50
T2 construct: purchased R&D Systems 3050-AV
T2 sequence (P06756 31-992 limits assumed): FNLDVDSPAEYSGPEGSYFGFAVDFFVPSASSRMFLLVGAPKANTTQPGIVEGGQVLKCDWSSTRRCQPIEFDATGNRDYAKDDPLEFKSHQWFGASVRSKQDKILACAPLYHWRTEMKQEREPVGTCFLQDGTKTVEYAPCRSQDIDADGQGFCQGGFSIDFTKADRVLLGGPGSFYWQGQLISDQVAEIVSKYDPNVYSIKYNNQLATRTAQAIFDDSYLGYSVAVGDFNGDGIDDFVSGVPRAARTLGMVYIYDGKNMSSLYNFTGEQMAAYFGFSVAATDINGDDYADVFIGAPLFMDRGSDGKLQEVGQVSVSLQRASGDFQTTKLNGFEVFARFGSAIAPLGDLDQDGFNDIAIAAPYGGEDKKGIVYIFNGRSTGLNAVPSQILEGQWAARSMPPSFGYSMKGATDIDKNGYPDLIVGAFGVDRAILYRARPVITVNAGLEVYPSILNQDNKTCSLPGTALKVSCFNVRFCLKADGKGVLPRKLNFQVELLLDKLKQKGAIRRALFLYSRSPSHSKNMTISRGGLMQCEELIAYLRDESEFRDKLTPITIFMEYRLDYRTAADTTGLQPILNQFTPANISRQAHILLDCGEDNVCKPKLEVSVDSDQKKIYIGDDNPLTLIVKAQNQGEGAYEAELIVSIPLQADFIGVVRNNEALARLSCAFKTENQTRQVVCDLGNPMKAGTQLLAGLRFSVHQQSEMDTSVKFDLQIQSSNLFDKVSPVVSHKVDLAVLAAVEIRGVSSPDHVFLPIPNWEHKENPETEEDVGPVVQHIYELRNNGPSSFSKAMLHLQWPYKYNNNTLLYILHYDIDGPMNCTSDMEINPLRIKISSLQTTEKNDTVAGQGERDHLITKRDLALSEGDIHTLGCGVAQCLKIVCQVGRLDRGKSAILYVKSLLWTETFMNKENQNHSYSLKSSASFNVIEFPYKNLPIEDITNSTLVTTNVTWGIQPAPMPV
T2 sequence (P05106 27-718 limits assumed): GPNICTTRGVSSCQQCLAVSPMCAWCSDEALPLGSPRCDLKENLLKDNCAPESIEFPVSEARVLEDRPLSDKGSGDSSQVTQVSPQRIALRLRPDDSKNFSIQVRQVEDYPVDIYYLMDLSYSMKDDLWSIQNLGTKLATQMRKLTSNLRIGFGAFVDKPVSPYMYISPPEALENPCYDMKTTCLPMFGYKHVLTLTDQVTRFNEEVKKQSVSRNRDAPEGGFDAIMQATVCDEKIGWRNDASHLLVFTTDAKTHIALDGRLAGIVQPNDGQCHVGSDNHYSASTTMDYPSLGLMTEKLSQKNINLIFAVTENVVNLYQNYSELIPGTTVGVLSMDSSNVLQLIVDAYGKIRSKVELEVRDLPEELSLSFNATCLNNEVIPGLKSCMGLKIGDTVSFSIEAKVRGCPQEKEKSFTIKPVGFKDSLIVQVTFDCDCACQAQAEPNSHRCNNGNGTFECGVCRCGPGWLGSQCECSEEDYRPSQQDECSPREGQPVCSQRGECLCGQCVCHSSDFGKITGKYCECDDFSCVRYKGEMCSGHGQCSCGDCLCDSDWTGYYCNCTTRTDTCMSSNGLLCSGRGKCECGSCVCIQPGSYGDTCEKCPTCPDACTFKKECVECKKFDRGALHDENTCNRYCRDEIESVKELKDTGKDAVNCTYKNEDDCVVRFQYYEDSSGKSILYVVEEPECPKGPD

T1 sequence (P06756 31-992 limits assumed): as the sequence (P06756 31-992 limits assumed) above
T1 sequence (P05556 21-728 limits assumed): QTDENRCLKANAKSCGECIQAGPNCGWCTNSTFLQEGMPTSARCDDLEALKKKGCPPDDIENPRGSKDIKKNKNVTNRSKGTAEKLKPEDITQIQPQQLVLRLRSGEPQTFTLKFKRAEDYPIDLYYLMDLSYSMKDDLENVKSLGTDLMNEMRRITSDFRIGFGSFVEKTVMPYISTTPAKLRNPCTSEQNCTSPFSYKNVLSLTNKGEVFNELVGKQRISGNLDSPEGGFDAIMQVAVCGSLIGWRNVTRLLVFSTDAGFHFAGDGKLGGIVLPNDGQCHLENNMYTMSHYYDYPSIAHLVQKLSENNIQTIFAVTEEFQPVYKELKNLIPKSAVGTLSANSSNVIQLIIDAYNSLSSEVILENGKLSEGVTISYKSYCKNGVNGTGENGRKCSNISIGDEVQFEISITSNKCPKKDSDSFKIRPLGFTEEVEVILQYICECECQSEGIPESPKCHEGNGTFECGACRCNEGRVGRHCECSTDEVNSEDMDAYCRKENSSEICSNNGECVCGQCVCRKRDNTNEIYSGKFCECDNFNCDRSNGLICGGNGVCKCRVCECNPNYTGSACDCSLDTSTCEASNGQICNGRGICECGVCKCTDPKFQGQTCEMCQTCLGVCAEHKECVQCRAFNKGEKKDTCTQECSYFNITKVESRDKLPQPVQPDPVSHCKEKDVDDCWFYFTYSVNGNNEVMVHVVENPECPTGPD

| Structure (SMILES) | IC50 [1] [nM] | IC50 [2] [nM] |
| --- | --- | --- |
| Cn1nc(CC(CC(=O)O)c2cc(Br)cc(C3(C(F)F)CC3)c2)cc1OCCc1ccc2c(n1)NCCC2 (stereo not shown) [Example 19, 3-(3-bromo-5-(1-(difluoromethyl)cyclopropyl)phenyl)-4-(1-methyl-5-(2-(5,6,7,8-tetrahydro-1,8-naphthyridin-2-yl)ethoxy)-1H-pyrazol-3-yl)butanoic Acid] | 6.3 | 6.4 |
| Cn1nc(CC(CC(=O)O)c2cc(C(C)(C)C)cc(C(C)(C)C)c2)cc1OCCc1ccc2c(n1)NCCC2 (stereo not shown) [Example 18, 3-(3,5-di-tert-butylphenyl)-4-[1-methyl-5-[2-(5,6,7,8-tetrahydro-1,8-naphthyridin-2-yl)ethoxyl]pyrazol-3-yl]butanoic Acid] | 1.4 | 84 |
| Cn1nc(CC(CC(=O)O)c2cc(F)cc(C(C)(C)C(F)(F)F)c2)cc1OCCc1ccc2c(n1)NCCC2 (stereo not shown) [Example 24, 3-(3-fluoro-5-(1,1,1-trifluoro-2-methylpropan-2-yl)phenyl)-4-(1-methyl-5-(2-(5,6,7,8-tetrahydro-1,8-naphthyridin-2-yl)ethoxy)-1H-pyrazol-3-yl)butanoic Acid] | 4.4 | 4.5 |
| COc1cc(C(C)(C)C)ccc1C(CC(=O)O)Cc1cc(OCCc2ccc3c(n2)NCCC3)n(C)n1 (stereo not shown) [Example 34, 3-(4-(tert-butyl)-2-methoxyphenyl)-4-(1-methyl-5-(2-(5,6,7,8-tetrahydro-1,8-naphthyridin-2-yl)ethoxy)-1H-pyrazol-3-yl)butanoic Acid] | 47 | 4.6 |
| COc1ccc(C#N)cc1C(CC(=O)O)Cc1cc(OCCc2ccc3c(n2)NCCC3)n(C)n1 (stereo not shown) [Example 46, 3-(5-cyano-2-methoxyphenyl)-4-(1-methyl-5-(2-(5,6,7,8-tetrahydro-1,8-naphthyridin-2-yl)ethoxy)-1H-pyrazol-3-yl)butanoic Acid Trifluoroacetate] | 8.1 | 9.9 |
| COc1ccc([C@H](CC(=O)O)Cc2cc(OCCc3ccc4c(n3)NCCC4)n(C)n2)cc1F [Example 15, (3S)-3-(3-fluoro-4-methoxyphenyl)-4-(1-methyl-5-(2-(5,6,7,8-tetrahydro-1,8-naphthyridin-2-yl)ethoxy)-1H-pyrazol-3-yl)butanoic Acid] | 3.8 | 2.6 |
| Cn1nc(CC(CC(=O)O)c2ccc3c(c2)OCCO3)cc1OCCc1ccc2c(n1)NCCC2 (stereo not shown) [Example 1, 3-(2,3-dihydrobenzo[b][1,4]dioxin-6-yl)-4-(1-methyl-5-(2-(5,6,7,8-tetrahydro-1,8-naphthyridin-2-yl)ethoxy)-1H-pyrazol-3-yl)butanoic Acid] | 6 | 5 |
| Cn1nc(CC(CC(=O)O)c2cc(C(F)(F)F)cc(C3(C(F)F)CC3)c2)cc1OCCc1ccc2c(n1)NCCC2 (stereo not shown) [Example 23, 3-(3-(1-(difluoromethyl)cyclopropyl)-5-(trifluoromethyl)phenyl)-4-(1-methyl-5-(2-(5,6,7,8-tetrahydro-1,8-naphthyridin-2-yl)ethoxy)-1H-pyrazol-3-yl)butanoic Acid] | 3.8 | 7.5 |
| Cn1nc(CC(CC(=O)O)c2cccc(C(C)(C)C)c2)cc1OCCc1ccc2c(n1)NCCC2 (stereo not shown) [Example 49, 3-(3-tert-butylphenyl)-4-[1-methyl-5-[2-(5,6,7,8-tetrahydro-1,8-naphthyridin-2-yl)ethoxy]pyrazol-3-yl]butanoic Acid Trifluoroacetate] | 4.4 | 7 |
| Cn1nc(CC(CC(=O)O)c2cc(C(C)(C)C)ccc2O)cc1OCCc1ccc2c(n1)NCCC2 (stereo not shown) [Example 42, 3-(5-tert-butyl-2-hydroxy-phenyl)-4-[1-methyl-5-[2-(5,6,7,8-tetrahydro-1,8-naphthyridin-2-yl)ethoxyl]pyrazol-3-yl]butanoic Acid Sodium Salt] | 2.4 | 18 |
| Cn1nc(CC(CC(=O)O)c2cc(C#N)cc(C(C)(C)C)c2)cc1OCCc1ccc2c(n1)NCCC2 (stereo not shown) [Example 17] | 4.4 | 7.4 |
| COCC1(c2cc(F)cc(C(CC(=O)O)Cc3cc(OCCc4ccc5c(n4)NCCC5)n(C)n3)c2)CCOCC1 (stereo not shown) [Example 30, 3-(3-fluoro-5-(4-(methoxymethyl)tetrahydro-2H-pyran-4-yl)phenyl)-4-(1-methyl-5-(2-(5,6,7,8-tetrahydro-1,8-naphthyridin-2-yl)ethoxy)-1H-pyrazol-3-yl)butanoic Acid] | 6.6 | 8.1 |
| COc1ccc(C(CC(=O)O)Cc2cc(OCCc3ccc4c(n3)NCCC4)n(C)n2)cc1F (stereo not shown) [Example 3, 3-(3-fluoro-4-methoxyphenyl)-4-(1-methyl-5-(2-(5,6,7,8-tetrahydro-1,8-naphthyridin-2-yl)-ethoxy)-1H-pyrazol-3-yl)butanoic Acid] | 5 | 3 |
| Cn1nc(CC(CC(=O)O)c2ccc(Br)c(F)c2)cc1OCCc1ccc2c(n1)NCCC2 (stereo not shown) [Example 4, 3-(4-bromo-3-fluorophenyl)-4-(1-methyl-5-(2-(5,6,7,8-tetrahydro-1,8-naphthyridin-2-yl)ethoxy)-1H-pyrazol-3-yl)butanoic Acid] | 5 | 3 |
